The source of these data is patent US11866641B2, “Method for fracking subterranean geological formation with surfactant-containing fluid” (KING FAHD UNIVERSITY OF PETROLEUM AND MINERALS, priority 2019, dated 2024).

Format in all cases: physicochemical
The nature of data set [1]: Surface tension, force tensiometer with Wilhelmy plate. Conditions: water. On the procedure:
Surface activities of OPAC, OPAS, and OPAH were determined using a force tensiometer with a platinum Wilhelmy plate (Sigma 702, Biolin Scientific). The test temperatures were 30° C. and 60° C. The plate was flushed with deionized water before heating it red hot to ensure it was properly cleaned. The surface tension of deionized water was measured three times to check if the cleanup procedure yielded repeatable results. The samples were covered to minimize evaporation, but with enough space to let the plate go through the covering during the measurement.
The surface tension data was used to estimate other properties using the following equations:
[formula] [formula] [formula] where cmc is critical micelle concentration, γ0 represents surface tension of water without surfactant, γcmc is surface tension at cmc, πcmc Represents the ability of the surfactant to reduce the surface tension, rmax is the maximum surface access, Avogadro number is represented by NA, dγ/dlnC is the slope, C represents the concentration of surfactant, temperature, and gas constant are represented by T and R, respectively, Amin is the minimum area per molecule, and the values of n is 1 for zwitterionic surfactants. Synthesis

Data set [2] in a line: Thermogravimetric analysis (TGA), thermal stability. Conditions: 20° C./min, nitrogen; for Thermal stability by TGA, stable up to: 30-500° C. The protocol:
TGA graph was obtained using SDT Q600 machine (TA instrument) with continuous heating at 20° C./min. The heating range 30-500° C. with a stable flow of nitrogen at 100 mL/min.

A short description of data set [3]: Salt tolerance / solubility of surfactant solutions in DW, SW and FW. Conditions: for Solubility and salt tolerance in DW, SW and FW: 10 wt % solutions in DW; for Solubility and salt tolerance in DW, SW and FW / Precipitation or phase separation of solutions in FW, SW and DW / Precipitation or phase separation in formation water (FIG. 5) / Precipitation or phase separation in seawater (FIG. 4): 90 days at 90° C.; for Solubility in simulated SW and FW: up to 90 days at 90° C. The protocol: 10 wt % solutions of OPAC, OPAS, and OPAH were prepared in DW, SW, and FW and kept in the oven for 90 days at 90° C.

“Also recorded” adds a separate entry of the source.

Turning to “Oleyl Polyoxyethylene Amindopropyl Carboxybetaine [OPAC]”, in data set [1] (30° C.), the “Amin (minimum area per molecule)” value turned out to be 0.97 nm^2, the cmc turned out to be 0.000346 mol/L, the “Γmax × 10^6 (maximum surface excess)” value is reported as 1.70 mol m^−2 and the “γcmc (surface tension at cmc)” value came out at 34.67 mN m^−1. In data set [1] (30° C.), the “πcmc (ability to reduce the surface tension)” value was found to be 37.33 mN/m. Moreover, in data set [1] (60° C.), the “Amin (minimum area per molecule)” value stood at 1.04 nm^2, the cmc was determined as 9.7e-05 mol/L, the “Γmax × 10^6 (maximum surface excess)” value is listed as 1.58 mol m^−2 and the “γcmc (surface tension at cmc)” value stood at 32.24 mN m^−1. In addition, the “πcmc (ability to reduce the surface tension)” value in data set [1] (60° C.) turned out to be 39.76 mN/m. Besides, in data set [2], the “Thermal stability by TGA, stable up to” value was roughly 300 °C; the “Initial loss in weight (TGA; associated with water and solvent)” value (from here on “Initial loss in weight”) is 30%; the “Temperature of big weight loss / decomposition temperature (TGA)” value is 312 °C. In data set [3], the “Solubility and salt tolerance in DW, SW and FW” value (“Solubility and salt tolerance” for short) is “compatible and soluble with all kinds of water; also recorded: excellent solubility”; the “Precipitation or phase separation of solutions in FW, SW and DW” value is “no precipitation or phase separation was detected”; the “Precipitation or phase separation in formation water (FIG. 5)” value was “no signs of precipitation or phase separation”; the “Precipitation or phase separation in seawater (FIG. 4)” value was “no signs of precipitation or phase separation”. For the same substance, the “Solubility in simulated SW and FW” value in data set [3] is recorded as “soluble”.
In the case of “Oleyl Polyoxyethylene Amidopropyl Hydroxy Sulfobetaine [OPAH]”, in data set [1] (30° C.), the “Amin (minimum area per molecule)” value amounted to 0.62 nm^2, the cmc turned out to be 7.1e-05 mol/L, the “Γmax × 10^6 (maximum surface excess)” value was 2.66 mol m^−2 and the “γcmc (surface tension at cmc)” value amounted to 36.89 mN m^−1. For the same substance, in data set [1] (30° C.), the “πcmc (ability to reduce the surface tension)” value is 34.96 mN/m. For the same substance, in data set [1] (60° C.), the “Amin (minimum area per molecule)” value was found to be 0.71 nm^2, the cmc was determined as 3.35e-05 mol/L, the “Γmax × 10^6 (maximum surface excess)” value is listed as 2.33 mol m^−2 and the “γcmc (surface tension at cmc)” value was found to be 33.68 mN m^−1. Also, the “πcmc (ability to reduce the surface tension)” value in data set [1] (60° C.) turned out to be 38.07 mN/m. Further, in data set [2], the “Thermal stability by TGA, stable up to” value is roughly 300 °C; the “Initial loss in weight” value is 29%; the “Temperature of big weight loss / decomposition temperature (TGA)” value was determined as 307 °C. Besides, in data set [3], the “Solubility and salt tolerance” value is “compatible and soluble with all kinds of water; also recorded: excellent solubility”; the “Precipitation or phase separation of solutions in FW, SW and DW” value is given as “no precipitation or phase separation was detected”; the “Precipitation or phase separation in formation water (FIG. 5)” value is reported as “no signs of precipitation or phase separation”; the “Precipitation or phase separation in seawater (FIG. 4)” value is reported as “no signs of precipitation or phase separation”. Also, the “Solubility in simulated SW and FW” value in data set [3] is “soluble”.
On to “Oleyl Polyoxyethylene Amidopropyl Sulfobetaine [OPAS]”, for which, in data set [1] (30° C.), the “Amin (minimum area per molecule)” value was 0.77 nm^2, the cmc was 3.66e-05 mol/L, the “Γmax × 10^6 (maximum surface excess)” value came to 2.15 mol m^−2 and the “γcmc (surface tension at cmc)” value is 37.04 mN m^−1. Moreover, the “πcmc (ability to reduce the surface tension)” value in data set [1] (30° C.) is recorded as 35.59 mN/m. For the same substance, in data set [1] (60° C.), the “Amin (minimum area per molecule)” value was 1.01 nm^2, the cmc is 3.41e-05 mol/L, the “Γmax × 10^6 (maximum surface excess)” value came to 1.64 mol m^−2 and the “γcmc (surface tension at cmc)” value was 33.74 mN m^−1. The “πcmc (ability to reduce the surface tension)” value in data set [1] (60° C.) is recorded as 38.26 mN/m. Also, in data set [2], the “Thermal stability by TGA, stable up to” value is roughly 300 °C; the “Initial loss in weight” value is 25%; the “Temperature of big weight loss / decomposition temperature (TGA)” value amounted to 295 °C. In data set [3], the “Solubility and salt tolerance” value was “compatible and soluble with all kinds of water; also recorded: excellent solubility”; the “Precipitation or phase separation of solutions in FW, SW and DW” value is “no precipitation or phase separation was detected”; the “Precipitation or phase separation in formation water (FIG. 5)” value is reported as “no signs of precipitation or phase separation”; the “Precipitation or phase separation in seawater (FIG. 4)” value is “no signs of precipitation or phase separation”. Moreover, the “Solubility in simulated SW and FW” value in data set [3] is “soluble”.
